{"source": "patent EP2327766B1", "about": "“Nitrilases” (BASF Enzymes LLC, priority 2001, dated 2003)"}
{"system": "nitrilase SEQ ID NOS:385, 386 (nitrilase I), obtained from an environmental sample", "test": "High throughput nitrilase activity assay, turnover frequency on mandelonitrile derivatives", "format": "biochemical, Unknown (obtained from an environmental sample)", "conditions": "25 mM substrate, 0.12 mg/mL enzyme, 10% MeOH (v/v) 0.1 M phosphate buffer, 37°C, pH 8; 5 min timepoint", "protocol": "(§1) The nitrilase library was screened for activity and enantioselectivity in the hydrolysis of mandelonitrile (3a, Ar = phenyl) to mandelic acid. […] Under standard conditions using 25 mM 3a and 0.12 mg/mL enzyme in 10% MeOH (v/v) 0.1 M phosphate buffer at 37°C and pH 8, (R)-mandelic acid was formed quantitatively within 10 min and with 98% ee. To confirm synthetic utility, the reaction was performed using 1.0 g 3a (50 mM) and 9 mg nitrilase (0.06 mg/mL nitrilase I); after 3 h (R)-mandelic acid was isolated in high yield (0.93 g, 86%) and again with 98% ee. [drawing 19] Table 13. SEQ ID NOS:385, 386-catalyzed production of mandelic acid derivatives and analogues 4a\n(§2) Activity assays were conducted using 25 mM (-3 mg/mL) substrate, 0.1 mg/mL nitrilase in 0.25 mL of assay solution. Assay solutions consisted of 0-10% (v/v) MeOH in 0.1 M sodium phosphate buffer solution at pH 7 to 9 and temperatures 37°C or 22°C. Specific activities were measured at 5 min transformation time point, unless otherwise noted, and are expressed in units µmol mg^-1 min^-1. Enantiomeric excess and conversion rates were determined by high throughput HPLC analysis comparing enzyme product concentration to standard curves of racemic acid products. Analytical conditions for the products are tabulated below."}
{"molecule": "N#CC(O)c1cccc(Br)c1", "note": "(stereo not shown) [3-bromomandelonitrile]", "TOF (turnover frequency)": "1.7 mol product/mol catalyst/sec"}
{"molecule": "N#CC(O)c1ccccc1Br", "note": "(stereo not shown) [2-bromomandelonitrile]", "TOF (turnover frequency)": "5.6 mol product/mol catalyst/sec"}
{"molecule": "Cc1ccccc1C(O)C#N", "note": "(stereo not shown) [2-methylmandelonitrile]", "TOF (turnover frequency)": "5.1 mol product/mol catalyst/sec"}
{"molecule": "N#CC(O)c1ccsc1", "note": "(stereo not shown) [3-thienyl cyanohydrin]", "TOF (turnover frequency)": "16.8 mol product/mol catalyst/sec"}
{"molecule": "N#CC(O)c1ccccc1Cl", "note": "(stereo not shown) [2-chloro mandelonitrile]", "TOF (turnover frequency)": "1.7 mol product/mol catalyst/sec"}
{"molecule": "N#CC(O)c1ccc(F)cc1", "note": "(stereo not shown) [4-fluoromandelonitrile]", "TOF (turnover frequency)": "11.8 mol product/mol catalyst/sec"}
{"molecule": "N#CC(O)c1ccccc1", "note": "(stereo not shown) [mandelonitrile]", "TOF (turnover frequency)": "28 mol product/mol catalyst/sec"}
{"molecule": "N#CC(O)c1cccnc1", "note": "(stereo not shown) [3-pyridyl cyanohydrin]", "TOF (turnover frequency)": "18.6 mol product/mol catalyst/sec"}
{"molecule": "N#CC(O)c1cccc(Cl)c1", "note": "(stereo not shown) [3-chloromandelonitrile]", "TOF (turnover frequency)": "3.4 mol product/mol catalyst/sec"}
{"system": "nitrilase SEQ ID NOS:385, 386 (nitrilase I), obtained from an environmental sample", "test": "High throughput nitrilase activity assay, turnover frequency on mandelonitrile derivatives", "format": "biochemical, Unknown (obtained from an environmental sample)", "conditions": "entries 8-9: pH 9 and 5 mM substrate concentration; otherwise standard conditions", "protocol": "as §1, §2"}
{"molecule": "N#CC(O)c1cccc2ccccc12", "note": "(stereo not shown) [1-naphthyl cyanohydrin]", "TOF (turnover frequency)": "2.8 mol product/mol catalyst/sec"}
{"molecule": "N#CC(O)c1ccc2ccccc2c1", "note": "(stereo not shown) [2-naphthyl cyanohydrin]", "TOF (turnover frequency)": "2.8 mol product/mol catalyst/sec"}
{"system": "Nitrilase II, SEQ ID NOS:103, 104, obtained from an environmental sample", "test": "High throughput nitrilase activity assay, turnover frequency on aryl acetaldehyde cyanohydrins", "format": "biochemical, Unknown (obtained from an environmental sample)", "conditions": "conditions as in Table 13 (25 mM substrate, 10% MeOH, 37°C, pH 8), except 0.016 mg/mL nitrilase", "source_text": "We next examined the preparation of aryllactic acid derivatives 6 through hydrolysis of the corresponding cyanohydrins 5. Phenyllactic acid and derivatives serve as versatile building blocks for the preparation of numerous biologically active compounds. (Coppola, G.M.; Schuster, H.F. Chiral α-Hydroxy Acids in Enantioselective Synthesis; Wiley-VCH: Weinheim, Germany: 1997.) Upon screening our nitrilase library against the parent cyanohydrin 5a (Ar= phenyl), we found several enzymes that provided 6a with high enantiomeric excess. One enzyme, SEQ ID NOS: 103, 104, was further characterized. […] The highest [drawing 20] enantioselectivity previously reported for biocatalytic conversion of 5 to 6 was 75% ee achieved through a whole cell transformation using a Pseudomonas strain. (Hashimoto, Y.; Kobayashi, E.; Endo, T.; Nishiyama, M.; Horinouchi, S. Biosci. Biotech. Biochem. 1996, 60, 1279.) Table 14. Nitrilase II-catalyzed production of aryllactic acid derivatives and analogues 6a\nas §2, with “Assay” for “Activity assays were conducted using 25 mM (-3 mg/mL) substrate, 0.1 mg/mL nitrilase in 0.25 mL of assay solution. Assay”"}
{"molecule": "N#CC(O)Cc1ccccc1F", "note": "(stereo not shown) [2-fluorophenyl acetaldehyde cyanohydrin]", "TOF (turnover frequency)": "97 mol product/mol catalyst/sec"}
{"molecule": "N#CC(O)Cc1cccs1", "note": "(stereo not shown) [2-thienyl acetaldehyde cyanohydrin]", "TOF (turnover frequency)": "2.1 mol product/mol catalyst/sec"}
{"molecule": "N#CC(O)Cc1cccc(F)c1", "note": "(stereo not shown) [3-tluorophenyl acetaldehyde cyanohydrin]", "TOF (turnover frequency)": "14 mol product/mol catalyst/sec"}
{"molecule": "N#CC(O)Cc1ccccn1", "note": "(stereo not shown) [2-pyridyl acetaldehyde cyanohydrin]", "TOF (turnover frequency)": "6.6 mol product/mol catalyst/sec"}
{"molecule": "N#CC(O)Cc1ccccc1", "note": "(stereo not shown) [phenyl acetaldehyde cyanohydrin]", "TOF (turnover frequency)": "16 mol product/mol catalyst/sec"}
{"molecule": "3-pyridyl acetaldehyde cyanohydrin", "TOF (turnover frequency)": "7.2 mol product/mol catalyst/sec"}
{"molecule": "N#CC(O)Cc1ccsc1", "note": "(stereo not shown) [3-thienyl acetaldehyde cyanohydrin]", "TOF (turnover frequency)": "1.4 mol product/mol catalyst/sec"}
{"molecule": "Cc1cccc(CC(O)C#N)c1", "note": "(stereo not shown) [3-methylphenyl acetaldehyde cyanohydrin]", "TOF (turnover frequency)": "13 mol product/mol catalyst/sec"}
{"molecule": "N#CC(O)Cc1ccccc1Br", "note": "(stereo not shown) [2-bromophenyl acetaldehyde cyanohydrin]", "TOF (turnover frequency)": "76 mol product/mol catalyst/sec"}
{"molecule": "Cc1ccccc1CC(O)C#N", "note": "(stereo not shown) [2-methylphenyl acetaldehyde cyanohydrin]", "TOF (turnover frequency)": "100 mol product/mol catalyst/sec"}
{"molecule": "N#CC(O)Cc1cccc2ccccc12", "note": "(stereo not shown) [1-napthyl acetaldehyde cyanohydrin]", "TOF (turnover frequency)": "40 mol product/mol catalyst/sec"}
{"system": "nitrilase SEQ ID NOS:385, 386, obtained from an environmental sample", "test": "Effect of reaction components on nitrilase activity (2-chloromandelonitrile hydrolysis, non-chiral HPLC)", "format": "biochemical, Unknown (obtained from an environmental sample)", "conditions": "5 mM additive; 25 mM 2-chloromandelonitrile, 0.1 M phosphate buffer pH 8, 37°C", "source_text": "A vital part of an investigation into process optimization of an enzyme involves the determination of the effects of any compounds which could be present in the enzymatic reaction. For SEQ ID NOS:385, 386, these components were established as the starting material and equilibrium product of the cyanohydrin, 2-chlorobenzaldehyde; the product, 2-chloromandelic acid and the contaminant detected in the substrate, 2-chlorobenzoic acid. […] The presence of trace amounts of triethylamine was also found to be tolerable to the enzyme.\nThe effect of the various reaction components on the activity of SEQ ID NOS:385, 386 was assessed by addition of various levels of possible inhibitors to the enzyme reaction. […]\n• (i) Activity: The effect of the process components on the activity of the enzymes was established by addition of the individual components, 2-chlorobenzaldehyde, 2-chlorobenzoic acid or 2-chloromandelic acid, to the enzymatic reaction. […] The samples were analysed by non-chiral HPLC. • (ii) Stability: The stability of the enzymes to process conditions was monitored by incubation of the enzymes in the presence of the reaction components, 2-chlorobenzaldehyde and 2-chloromandelic acid for predetermined time periods, prior to assay of the enzyme activity under standard conditions. […]"}
{"molecule": "O=C(O)c1ccccc1Cl", "note": "[2-chlorobenzoic acid]", "activity lost upon addition to the reaction": "~40%"}
{"molecule": "O=Cc1ccccc1Cl", "note": "[2-chlorobenzaldehyde]", "activity lost upon addition to the reaction": "Approximately 70%"}
{"system": "nitrilase SEQ ID NOS:103, 104", "test": "Effect of starting material and product on nitrilase activity (phenylacetaldehyde cyanohydrin hydrolysis)", "format": "biochemical, Unknown (obtained from an environmental sample)", "conditions": "up to levels of 5 mM", "protocol": "The effect of the process components on the activity of the enzymes was established by addition of the individual components to the enzymatic reaction. These components included the starting materials for the nitrile synthesis, aldehyde, cyanide and ammonium, as well as triethylamine, which is added in catalytic amounts to the nitrile synthesis reaction. The concentrations of the reactants were selected with possible process conditions in mind and were adapted to the levels of reactants used in the enzyme assays. In some cases, the solubility of the aldehydes and products was relatively low; in these cases, the highest level of solubility was added to the reactions as the highest level and 10% of this level as the lower value.\nThe enzymatic reactions were carried out under standard conditions, with addition of one or more of the following components: benzaldehyde, phenylglycine, phenylacetaldehyde, phenyllactic acid, 2-chlorobenzaldehyde, 2-chloromandelic acid, 5-hydroxypentanal, (S)-2-amino-6-hydroxy hexanoic acid, 4-methylleucine, KCN, Triethylamine, NH4Cl. Control reactions were performed under standard conditions, with no additive. The samples were analyzed by non-chiral HPLC.\nSEQ ID NOS: 103, 104 was identified as a highly enantioselective nitrilase for the production of (S)- phenyllactic acid. […] The scaled-up enzymatic reaction with an enantiomeric excess (ee) of 95%. […]"}
{"molecule": "O=CCc1ccccc1", "note": "[phenylacetaldehyde]", "effect on the enzyme activity": "no effect"}
{"system": "nitrilase expressing subclones SEQ ID NOS:101, 102, SEQ ID NOS:187, 188, SEQ ID NOS:29, 30", "test": "Growth of nitrilase expressing subclones in the presence of HPA nitrile", "format": "cell-based", "conditions": "cells grown at pH 7", "protocol": "(§3) In preparation for assay automation, nitrilase expressing cells were added into microtiter plate containing M9 0.2% glucose,0.25 mM IPTG media by florescence activated cell sorting (FACS). Three nitrilase expressing subclones, and the empty vector control were evaluated: SEQ ID NOS:101, 102, SEQ ID NOS:187, 188, SEQ ID NOS:29, 30 and the empty vector. […] Thus colony picking is currently being evaluated as an alternative method to add cells into microtiter plates. The evaporative loss from an uncovered 1536-well microtiter plate is approximately 30% per day in the robot incubator (incubator conditions: 37°C at 85% relative humidity (RH)). Incubation in the 95% RH incubator reduced evaporative loss to 1% per day.\n(§4) The ability of the three subclones to grow in the presence of up to 3.5 mM of nitrile was established using HPA nitrile. Growth rates were only slightly retarded (less that 30%). […] Only S was evaluated as the enzymes are S-selective. The reaction plate was read at 10 minute intervals, with 40 minutes showing the best linearity."}
{"molecule": "CC(C)(CO)C(N)C#N", "note": "(stereo not shown) [HPA, Hydroxypivaldehyde aminonitrile]", "concentration above which cell growth is significantly inhibited": "above 5 mM"}
{"system": "nitrilase expressing subclones SEQ ID NOS:101, 102, SEQ ID NOS:187, 188, SEQ ID NOS:29, 30", "test": "Growth of nitrilase expressing subclones in the presence of HPA nitrile", "format": "cell-based", "conditions": "cells grown at pH 8", "protocol": "as §3, §4"}
{"molecule": "CC(C)(CO)C(N)C#N", "note": "(stereo not shown) [HPA, Hydroxypivaldehyde aminonitrile]", "concentration above which growth was inhibited": "above 0.1 mM"}
{"system": "nitrilase expressing subclones SEQ ID NOS:101, 102, SEQ ID NOS:187, 188, SEQ ID NOS:29, 30", "test": "Growth of nitrilase expressing subclones in the presence of HPA nitrile", "format": "cell-based", "conditions": "in the presence of up to 3.5 mM of nitrile", "protocol": "as §3, §4", "units": {"growth rates retarded": "%"}}
{"molecule": "CC(C)(CO)C(N)C#N", "note": "(stereo not shown) [HPA, Hydroxypivaldehyde aminonitrile]", "growth rates retarded": "< 30"}
